Measured values as given in US20150344540A1, “NOVEL GLP-1 RECEPTOR AGONISTS WITH CHOLESTEROL EFFLUX ACTIVITY” (NOVO NORDISK A/S, priority 2012, published 2015).
Where two headings read alike, the source gives them in different places. Where a SMILES comes first, the peptide text is derived from it. [ ]: non-standard residue; d: D form. Aib = CC(C)(N)C(=O)O

Columns and labels:
human GLP-1 receptor = human GLP-1 receptor (Homo sapiens, UniProt P43220); test: Functional GLP-1 receptor assay, in vitro potency (CRE luciferase; whole cells); type: cell-based
[1] = tested on: Mouse monocyte/macrophage cell line, RAW 264.7; test: Cholesterol efflux assay (3H-cholesterol, macrophage cell line); type: cell-based; settings: RAW 264.7, 4 hrs incubation, 0.1% human serum albumin; for 4 h Cholesterol Efflux Emax: ABCA1-mediated efflux
[2] = GLP1R CRE luc 1% HSA EC50 Mean Value, BHK cells expressing human GLP-1 receptor, 1% HSA
[3] = BHK cells expressing human GLP-1 receptor, 0% HSA, read-out: GLP1R CRE luc 0% HSA EC50 Mean Value

Chain of human GLP-1 receptor (P43220 24-463): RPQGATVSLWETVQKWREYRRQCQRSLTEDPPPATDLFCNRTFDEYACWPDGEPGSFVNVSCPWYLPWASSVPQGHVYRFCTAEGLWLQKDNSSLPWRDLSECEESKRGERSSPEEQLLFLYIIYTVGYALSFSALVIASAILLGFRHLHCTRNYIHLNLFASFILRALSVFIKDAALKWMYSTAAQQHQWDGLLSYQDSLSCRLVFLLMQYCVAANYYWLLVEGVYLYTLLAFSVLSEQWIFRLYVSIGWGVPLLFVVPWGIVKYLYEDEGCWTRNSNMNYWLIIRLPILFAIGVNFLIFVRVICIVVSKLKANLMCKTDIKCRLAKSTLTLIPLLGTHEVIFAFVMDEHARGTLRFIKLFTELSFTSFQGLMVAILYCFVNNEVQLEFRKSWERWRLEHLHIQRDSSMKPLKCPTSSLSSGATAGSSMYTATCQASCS

Row | EC50 (human GLP-1 receptor; [2]) | EC50 (human GLP-1 receptor; [3]) | SMILES | 4 h Cholesterol Efflux Emax [1] | EC50 (human GLP-1 receptor; GLP1R CRE luc 0% HSA EC50 Mean Value) | EC50 (human GLP-1 receptor; GLP1R CRE luc 1% HSA EC50 Mean Value) | EC50 ([1]; read-out: 4 h Cholesterol Efflux EC50, ABCA1-mediated efflux (CPT-cAMP induced minus non-induced))
1 | 0.029 nM | – | CC(C)C[C@H](NC(=O)[C@H](Cc1ccccc1)NC(=O)[C@H](CCC(=O)O)NC(=O)[C@H](CCCCN)NC(=O)C(C)(C)NC(=O)[C@H](CCCCN)NC(=O)[C@H](CCC(=O)O)NC(=O)[C@H](CC(C)C)NC(=O)[C@H](CC(C)C)NC(=O)[C@H](Cc1c[nH]c2ccccc12)NC(=O)[C@H](CCC(N)=O)NC(=O)[C@@H](NC(=O)[C@H](Cc1ccccc1)NC(=O)[C@H](CCC(=O)O)NC(=O)[C@H](CCCNC(=N)N)NC(=O)[C@@H](NC(=O)[C@H](C)NC(=O)[C@H](CCC(=O)O)NC(=O)CNC(=O)[C@H](CCC(=O)O)NC(=O)[C@H](CC(C)C)NC(=O)[C@H](Cc1ccc(O)cc1)NC(=O)[C@H](CO)NC(=O)[C@H](CO)NC(=O)[C@@H](NC(=O)[C@H](CC(=O)O)NC(=O)[C@H](CO)NC(=O)[C@@H](NC(=O)[C@H](Cc1ccccc1)NC(=O)[C@@H](NC(=O)CNC(=O)[C@H](CCC(=O)O)NC(=O)C(C)(C)NC(=O)[C@@H](N)Cc1c[nH]cn1)[C@@H](C)O)[C@@H](C)O)C(C)C)C(C)C)C(C)C)C(N)=O [Compound 80, [Aib8,Glu23,Val25,Arq26,Val29,Gln30,Leu33,Glu34,Lys35,Aib36,Lys37]-GLP-1-(7-37)-peptidyl-Glu-Phe-Leu amide] (H-H[Aib]EGTFTSDVSSYLEGEAVREFVQWLLEK[Aib]KEFL-NH2) | 108% | – | – | –
2 | 0.028 nM | 0.076 nM | CC[C@H](C)[C@H](NC(=O)[C@H](Cc1ccccc1)NC(=O)[C@H](CCC(=O)O)NC(=O)[C@H](CCCNC(=N)N)NC(=O)[C@@H](NC(=O)[C@H](C)NC(=O)[C@H](CCC(=O)O)NC(=O)CNC(=O)[C@H](CCC(=O)O)NC(=O)[C@H](CC(C)C)NC(=O)[C@H](Cc1ccc(O)cc1)NC(=O)[C@H](CO)NC(=O)[C@H](CO)NC(=O)[C@@H](NC(=O)[C@H](CC(=O)O)NC(=O)[C@H](CO)NC(=O)[C@@H](NC(=O)[C@H](Cc1ccccc1)NC(=O)[C@@H](NC(=O)CNC(=O)[C@H](CCC(=O)O)NC(=O)C(C)(C)NC(=O)[C@@H](N)Cc1c[nH]cn1)[C@@H](C)O)[C@@H](C)O)C(C)C)C(C)C)C(=O)N[C@@H](C)C(=O)N[C@@H](Cc1c[nH]c2ccccc12)C(=O)N[C@@H](CC(C)C)C(=O)N[C@H](C(=O)N[C@@H](CCC(=O)O)C(=O)N[C@@H](CCCCN)C(=O)NC(C)(C)C(=O)N[C@@H](CCCCN)C(=O)N[C@@H](CCC(=O)O)C(=O)N[C@@H](Cc1ccccc1)C(=O)N[C@@H](CC(C)C)C(N)=O)C(C)C [Compound 81] (H-H[Aib]EGTFTSDVSSYLEGEAVREFIAWLVEK[Aib]KEFL-NH2) | 112% | – | – | –
3 | – | – | CC(C)C[C@H](NC(=O)[C@H](Cc1ccccc1)NC(=O)[C@H](CCC(=O)O)NC(=O)[C@H](CCCCN)NC(=O)C(C)(C)NC(=O)[C@H](CCCCN)NC(=O)[C@H](CCC(=O)O)NC(=O)[C@@H](NC(=O)[C@H](CC(C)C)NC(=O)[C@H](Cc1c[nH]c2ccccc12)NC(=O)[C@H](C)NC(=O)[C@@H](NC(=O)[C@H](Cc1ccccc1)NC(=O)[C@H](CCC(=O)O)NC(=O)[C@H](CCCCN)NC(=O)[C@@H](NC(=O)[C@H](C)NC(=O)[C@H](CCC(=O)O)NC(=O)CNC(=O)[C@H](CCC(=O)O)NC(=O)[C@H](CC(C)C)NC(=O)[C@H](Cc1ccc(O)cc1)NC(=O)[C@H](CO)NC(=O)[C@H](CO)NC(=O)[C@@H](NC(=O)[C@H](CC(=O)O)NC(=O)[C@H](CO)NC(=O)[C@@H](NC(=O)[C@H](Cc1ccccc1)NC(=O)[C@@H](NC(=O)CNC(=O)[C@H](CCC(=O)O)NC(=O)C(C)(C)NC(=O)[C@@H](N)Cc1c[nH]cn1)[C@@H](C)O)[C@@H](C)O)C(C)C)C(C)C)C(C)C)C(C)C)C(N)=O [Compound 82, [Aib8,Glu23,Val25,Val29,Glu34,Lys35,Aib36,Lys37]-GLP-1-(7-37)-peptidyl-Glu-Phe-Leu amide] (H-H[Aib]EGTFTSDVSSYLEGEAVKEFVAWLVEK[Aib]KEFL-NH2; N-terminus assumed) | 120% | 0.111 nM | 0.036 nM | 690 nM
4 | 0.042 nM | – | CC[C@H](C)[C@H](NC(=O)[C@H](Cc1ccccc1)NC(=O)[C@H](CCC(=O)O)NC(=O)[C@H](CCCCN)NC(=O)[C@@H](NC(=O)[C@H](C)NC(=O)[C@H](CCC(=O)O)NC(=O)CNC(=O)[C@H](CCC(=O)O)NC(=O)[C@H](CC(C)C)NC(=O)[C@H](Cc1ccc(O)cc1)NC(=O)[C@H](CO)NC(=O)[C@H](CO)NC(=O)[C@@H](NC(=O)[C@H](CC(=O)O)NC(=O)[C@H](CO)NC(=O)[C@@H](NC(=O)[C@H](Cc1ccccc1)NC(=O)[C@@H](NC(=O)CNC(=O)[C@H](CCC(=O)O)NC(=O)C(C)(C)NC(=O)[C@@H](N)Cc1c[nH]cn1)[C@@H](C)O)[C@@H](C)O)C(C)C)C(C)C)C(=O)N[C@@H](CCC(N)=O)C(=O)N[C@@H](Cc1c[nH]c2ccccc12)C(=O)N[C@@H](CC(C)C)C(=O)N[C@H](C(=O)N[C@@H](CCC(=O)O)C(=O)N[C@@H](CCCCN)C(=O)NC(C)(C)C(=O)N[C@@H](CCCCN)C(=O)N[C@@H](CCC(=O)O)C(=O)N[C@@H](Cc1ccccc1)C(=O)N[C@@H](CC(C)C)C(N)=O)C(C)C [Compound 83, [Aib8,Glu23,Val25,Gln30,Glu34,Lys35,Aib36,Lys37]-GLP-1-(7-37)-peptidyl-Glu-Phe-Leu amide] (H-H[Aib]EGTFTSDVSSYLEGEAVKEFIQWLVEK[Aib]KEFL-NH2) | 97% | – | – | –
5 | 0.076 nM | – | CC[C@H](C)[C@H](NC(=O)[C@H](Cc1ccccc1)NC(=O)[C@H](CCC(=O)O)NC(=O)[C@H](CCCCN)NC(=O)[C@@H](NC(=O)[C@H](C)NC(=O)[C@H](CCC(=O)O)NC(=O)CNC(=O)[C@H](CCC(=O)O)NC(=O)[C@H](CC(C)C)NC(=O)[C@H](Cc1ccc(O)cc1)NC(=O)[C@H](CO)NC(=O)[C@H](CO)NC(=O)[C@@H](NC(=O)[C@H](CC(=O)O)NC(=O)[C@H](CO)NC(=O)[C@@H](NC(=O)[C@H](Cc1ccccc1)NC(=O)[C@@H](NC(=O)CNC(=O)[C@H](CCC(=O)O)NC(=O)C(C)(C)NC(=O)[C@@H](N)Cc1c[nH]cn1)[C@@H](C)O)[C@@H](C)O)C(C)C)C(C)C)C(=O)N[C@@H](C)C(=O)N[C@@H](Cc1c[nH]c2ccccc12)C(=O)N[C@@H](CC(C)C)C(=O)N[C@@H](CC(C)C)C(=O)N[C@@H](CCC(=O)O)C(=O)N[C@@H](CCCCN)C(=O)NC(C)(C)C(=O)N[C@@H](CCCCN)C(=O)N[C@@H](CCC(=O)O)C(=O)N[C@@H](Cc1ccccc1)C(=O)N[C@@H](CC(C)C)C(N)=O [Compound 84, [Aib8,Glu23,Val25,Leu33,Glu34,Lys35,Aib36,Lys37]-GLP-1-(7-37)-peptidyl-Glu-Phe-Leu amide] (H-H[Aib]EGTFTSDVSSYLEGEAVKEFIAWLLEK[Aib]KEFL-NH2) | 94% | – | – | –
6 | 0.043 nM | 0.103 nM | CC[C@H](C)[C@H](NC(=O)[C@H](Cc1ccccc1)NC(=O)[C@H](CCC(=O)O)NC(=O)[C@H](CCCCN)NC(=O)[C@@H](NC(=O)[C@H](C)NC(=O)[C@H](CCC(=O)O)NC(=O)CNC(=O)[C@H](CCC(=O)O)NC(=O)[C@H](CC(C)C)NC(=O)[C@H](Cc1ccc(O)cc1)NC(=O)[C@H](CO)NC(=O)[C@H](CO)NC(=O)[C@@H](NC(=O)[C@H](CC(=O)O)NC(=O)[C@H](CO)NC(=O)[C@@H](NC(=O)[C@H](Cc1ccccc1)NC(=O)[C@@H](NC(=O)CNC(=O)[C@H](CCC(=O)O)NC(=O)C(C)(C)NC(=O)[C@@H](N)Cc1c[nH]cn1)[C@@H](C)O)[C@@H](C)O)C(C)C)C(C)C)C(=O)N[C@@H](CCCCN)C(=O)N[C@@H](Cc1c[nH]c2ccccc12)C(=O)N[C@@H](CC(C)C)C(=O)N[C@H](C(=O)N[C@@H](CCC(=O)O)C(=O)N[C@@H](CCCCN)C(=O)NC(C)(C)C(=O)N[C@@H](CCCCN)C(=O)N[C@@H](CCC(=O)O)C(=O)N[C@@H](Cc1ccccc1)C(=O)N[C@@H](CC(C)C)C(N)=O)C(C)C [Compound 86, [Aib8,Glu23,Val25,Lys30,Glu34,Lys35,Aib36,Lys37]-GLP-1-(7-37)-peptidyl-Glu-Phe-Leu amide] (H-H[Aib]EGTFTSDVSSYLEGEAVKEFIKWLVEK[Aib]KEFL-NH2) | 102% | – | – | –
7 | 0.118 nM | – | CC[C@H](C)[C@H](NC(=O)[C@H](Cc1ccccc1)NC(=O)[C@H](CCC(=O)O)NC(=O)[C@H](CCCNC(=N)N)NC(=O)[C@@H](NC(=O)[C@H](C)NC(=O)[C@H](CCC(=O)O)NC(=O)CNC(=O)[C@H](CCC(=O)O)NC(=O)[C@H](CC(C)C)NC(=O)[C@H](Cc1ccc(O)cc1)NC(=O)[C@H](CO)NC(=O)[C@H](CO)NC(=O)[C@@H](NC(=O)[C@H](CC(=O)O)NC(=O)[C@H](CO)NC(=O)[C@@H](NC(=O)[C@H](Cc1ccccc1)NC(=O)[C@@H](NC(=O)CNC(=O)[C@H](CCC(=O)O)NC(=O)C(C)(C)NC(=O)[C@@H](N)Cc1c[nH]cn1)[C@@H](C)O)[C@@H](C)O)C(C)C)C(C)C)C(=O)N[C@@H](C)C(=O)N[C@@H](Cc1c[nH]c2ccccc12)C(=O)N[C@@H](CC(C)C)C(=O)N[C@H](C(=O)N[C@@H](CCC(=O)O)C(=O)N[C@@H](CCCNC(=N)N)C(=O)N[C@H](C(=O)N[C@@H](CCCNC(=N)N)C(=O)N[C@@H](CCC(=O)O)C(=O)N[C@@H](Cc1ccccc1)C(=O)N[C@@H](CC(C)C)C(=O)N[C@@H](CCCCN)C(N)=O)C(C)C)C(C)C [Compound 91] (H-H[Aib]EGTFTSDVSSYLEGEAVREFIAWLVERVREFLK-NH2) | 103% | – | – | –
